In US7628996B2, “Sterile immunogenic non-tumorigenic tumor cell compositions and methods” (priority 2002, dated 2009):
“And” between values parts separate entries of the source, which are not always exact repeats. Equal entries are not always repeated. “Also recorded” adds a separate entry of the source.

How the values were obtained:
Enterococcus faecalis = assay: Short exposure of test microorganism to antibiotic; format: cell-based; conditions: 12.5 to 50 μg/mL, one hour at 37° C.
Procedure: (§1) Appropriate test microorganisms were incubated with the antibiotic for varying periods of time and at 4° C. or 37° C. “Untreated” controls were incubated with HBSS. After completion of the treatment, the samples were assayed for bioburden by the membrane filtration method on Tryptic Soy agar containing 5% sheep blood (TSA-SB) and Sabouraud's dextrose medium (SAB).
(§2) Two members of the quinolone class of antibiotics norfloxacin (Noroxin® (Merck & Co., Inc.)) and levofloxacin (Levaquin® (Ortho-McNeil)) also were evaluated. In preliminary experiments, norfloxacin was tested against Enterococcus faecalis and Pseudomonas aeruginosa.

Pseudomonas aeruginosa = assay: Short exposure of test microorganism to antibiotic; format: cell-based; conditions: 12.5 to 50 μg/mL, one hour at 37° C.
Procedure: as §1, §2

Candida albicans = assay: Short exposure of test microorganism to anti-mycotic; format: cell-based
Procedure: as §1
Amphotericin B was selected for action on yeasts and mold.

Bacteriodes vulgatus = assay: Short exposure of test microorganism to antibiotic; format: cell-based
Procedure: as §1
Anaerobes are the predominant microorganisms in the colon. […] Lincomycin (Lincocin hydrochloride) (Sigma-Aldrich Co.) and Primaxin® were then tested against this anaerobe.

colon tumor cells = assay: Disinfection of trimmed colon tumor pieces before dissociation: tumor cell viability, yield, potency; format: cell-based, human; conditions: treatment of trimmed tumor pieces, relative to control
Source text: For pathological staging purposes, the pathologist cuts the tumor to determine the deepest margin of penetration. Consequently, the excised tumors are comprised of several pieces of tumor tissue. The tissue was dissected to remove extraneous non-tumor and necrotic tissue. The trimmed tumor pieces were further subdivided to achieve homogeneity and divided into two to four groups for processing according to the experimental design. The tissue was divided as evenly as possible among the samples, taking care to make the tumor pieces in the experimental groups appear as identical as possible. The trimmed pieces were added to a tube containing 40 mL of disinfectant and then treated by shaking for 2 minutes at 200 rpm on a rotating platform shaker. […] The amount of tumor dissociated was determined by weighing the tumor fragments prior to dissociation and after completion of the dissociation cycles. […]
Tumor sample 500-0051-KNO was washed with saline, a second wash with 1% Triton X-100 and followed by three additional saline washes (see Example 1). […] In order to maximize the possible bioburden in the tumors and present a greater challenge to the disinfectant, the following modifications to the procedure were made: the tumors were minimally washed (one 500 mL quantity) prior to pathological dissection; the dissociations were performed in the absence of gentamicin.

[1] = system: bioburden of colon tumors; assay: Disinfection of trimmed colon tumor pieces before dissociation: bioburden of tumor cell suspension; format: cell-based; conditions: for effect of disinfectant on bioburden (in words): treatment of trimmed tumor pieces, concentrations tested; for Bioburden SAB-CM Aerobic / Bioburden TSA-SB Aerobic / Bioburden TSA-SB Anaerobic: per patient tumor sample
Source text: (§3) For pathological staging purposes, the pathologist cuts the tumor to determine the deepest margin of penetration. Consequently, the excised tumors are comprised of several pieces of tumor tissue. The tissue was dissected to remove extraneous non-tumor and necrotic tissue. The trimmed tumor pieces were further subdivided to achieve homogeneity and divided into two to four groups for processing according to the experimental design. The tissue was divided as evenly as possible among the samples, taking care to make the tumor pieces in the experimental groups appear as identical as possible. The trimmed pieces were added to a tube containing 40 mL of disinfectant and then treated by shaking for 2 minutes at 200 rpm on a rotating platform shaker. The trimmed tumor pieces were then washed three times with HBSS and then dissociated. The amount of tumor dissociated was determined by weighing the tumor fragments prior to dissociation and after completion of the dissociation cycles. After dissociation, the tumor cell suspension was sampled for percent tumor cell viability, number of viable tumor cells, tumor cell potency and bioburden. The yield was defined as the number of viable tumor cells obtained per gram of tumor that was actually dissociated. The bioburden was normalized to CFU/10^7 viable tumor cells, approximately one dose of product.
(§4) Tumor sample 500-0051-KNO was washed with saline, a second wash with 1% Triton X-100 and followed by three additional saline washes (see Example 1). The resultant bioburden was below the limit of detection of the assay. In order to evaluate the ability of a disinfectant to remove bioburden, one to two logs of bioburden must be detectable in the control sample. In order to maximize the possible bioburden in the tumors and present a greater challenge to the disinfectant, the following modifications to the procedure were made: the tumors were minimally washed (one 500 mL quantity) prior to pathological dissection; the dissociations were performed in the absence of gentamicin.

microbial growth = assay: Disinfection of trimmed colon tumor pieces before dissociation: sterility in TSB and FTG broth; format: cell-based; set-up: key: Pass (P) (no evidence of microbial growth); Fail (F) (Microbial growth); conditions: per patient tumor sample
Source text: as §3, §4

[2] = system: endogenous bioburden present in colon tumors; assay: Additional one hour incubation with antibiotics after enzymatic dissociation: bioburden; format: cell-based; conditions: additional incubation vs no incubation; per tumor
Procedure: as §1
For the first four tumors processed, a portion of the cell suspension dissociated in the presence of gentamicin or gentamicin with other antibiotics was also incubated for an additional hour (after completion of the dissociation) with the same antibiotic(s). This additional incubation was evaluated for increased reduction of bioburden.

[3] = 0.4% Clorpactin, 2 successive 2 min treatments
[4] = 0.4% Clorpactin, one 2 min treatment

CCn1cc(C(=O)O)c(=O)c2cc(F)c(N3CCNCC3)cc21 [Norfloxacin, norfloxacin]
effectiveness (in words) (Enterococcus faecalis): ineffectual
effectiveness (in words) (Pseudomonas aeruginosa): highly effective

C[C@@H]1[C@H](O)[C@@H](C)/C=C/C=C/C=C/C=C/C=C/C=C/C=C/[C@H](O[C@@H]2O[C@H](C)[C@@H](O)[C@H](N)[C@@H]2O)C[C@@H]2O[C@](O)(C[C@@H](O)C[C@@H](O)[C@H](O)CC[C@@H](O)C[C@@H](O)CC(=O)O[C@H]1C)C[C@H](O)[C@H]2C(=O)O [amphotericin B]
reduction in colonies (in words) (Candida albicans; 0.5 to 1.0 μg/mL, observed one day after treatment): Marked reduction in colonies
inhibition (in words) (Candida albicans; observed after 8 days in culture, higher concentration): only slight inhibition

CCC[C@@H]1C[C@@H](C(=O)N[C@@H]([C@H]2O[C@H](SC)[C@H](O)[C@@H](O)[C@H]2O)[C@@H](C)O)N(C)C1 [lincomycin, Lincomycin]
reduction of the anaerobe (Bacteriodes vulgatus; extended conditions: 40 minutes at 37° C., 4° C. for 60 minutes, additional 60 minutes at 37° C.): one log reduction
reduction of the anaerobe (Bacteriodes vulgatus; overnight at 4° C., Primaxin 100 μg/mL, lincomycin up to 150 μg/mL): no effect

Cc1ncc([N+](=O)[O-])n1CCO [Flagyl]
effectiveness against the anaerobe (in words) (Bacteriodes vulgatus; 2.5 and 5 μg/mL, aerobic incubation conditions): ineffectual

OCl [sodium hypochlorite]
effect of disinfectant on tumor cell yield (in words) (colon tumor cells): significantly reduced the tumor cell yield relative to the control
effect of disinfectant on bioburden (in words) [1]: effective in reducing the bioburden

sodium oxychlorosene [Clorpactin ®]
Bioburden SAB-CM Aerobic [1, 3]: ≦2 CFU/107 Cells
Bioburden TSA-SB Aerobic [1, 3]: ≦2 CFU/107 Cells
Bioburden TSA-SB Anaerobic [1, 3]: 3800 CFU/107 Cells and ≦2 CFU/107 Cells
% Reduction of bioburden TSA-SB Aerobic ([1]; 0.4% Clorpactin, 2 successive 2 min treatments, vs control of same tumor): (99%)
two successive two minute treatments versus single treatment (in words) ([1]; 0.4% Clorpactin, fresh disinfectant each time): No advantage for two treatments was observed
Bioburden SAB-CM Aerobic [1, 4]: 207 CFU/107 Cells and ≦11 CFU/107 Cells and ≦23 CFU/107 Cells and ≦2 CFU/107 Cells (2×) and <49 CFU/107 Cells
Bioburden TSA-SB Aerobic [1, 4]: 3910 CFU/107 Cells and <11 CFU/107 Cells and <23 CFU/107 Cells and 2 CFU/107 Cells and ≦2 CFU/107 Cells and <49 CFU/107 Cells
Bioburden TSA-SB Anaerobic [1, 4]: 3890 CFU/107 Cells and 343 CFU/107 Cells and <23 CFU/107 Cells and 294 CFU/107 Cells and ≦2 CFU/107 Cells and <49 CFU/107 Cells
Bioburden SAB-CM Aerobic ([1]; 0.8% Clorpactin, 2 min): 4452 CFU/107 Cells and ≦13 CFU/107 Cells
Bioburden TSA-SB Aerobic ([1]; 0.8% Clorpactin, 2 min): 7100 CFU/107 Cells and <13 CFU/107 Cells
Bioburden TSA-SB Anaerobic ([1]; 0.8% Clorpactin, 2 min): 8870 CFU/107 Cells and 1364 CFU/107 Cells
% Reduction of bioburden TSA-SB Anaerobic ([1]; 0.8% Clorpactin, 2 min, vs control of same tumor): (92%)
effect on bioburden (in words) ([1]; Clorpactin at 0.8% compared with 0.4%): no further reduction in bioburden was observed
effect of disinfectant on bioburden (in words) [1]: reduced the bioburden in the sample; also recorded: bioburden reductions to almost three orders of magnitude
Sterility FTG (microbial growth; [3]): F and P
Sterility TSB (microbial growth; [3]): F
Sterility FTG (microbial growth; [4]): F (3×) and P (3×)
Sterility TSB (microbial growth; [4]): F (4×) and P (2×)
Sterility FTG (microbial growth; 0.8% Clorpactin, 2 min): F
Sterility TSB (microbial growth; 0.8% Clorpactin, 2 min): F

gentamicin
Percent Reduction of Bioburden, SAB medium [2]: 80%
Percent Reduction of Bioburden, TSA medium [2]: 41%
